≈ marks a conversion by molar mass, not a printed value. Where “and” joins values, the source holds several entries; their conditions need not be identical. Identical values can stand only once. Like-named read-outs stand apart in the source and are kept apart here. Where a SMILES comes first, the peptide text is derived from it. Bridges are numbered along the chain shown (N, C = ends). [ ]: non-standard residue; d: D form. The star is where a group is joined. Octanoyl = CCCCCCCC(=O)*; Dab = NCC[C@H](N)C(=O)O; Abu = CC[C@H](N)C(=O)O
Experiments:
K. pneumoniae ATCC 43816 = conditions: K. pneumoniae ATCC 43816
K. pneumoniae JMI 27072 = conditions: K. pneumoniae JMI 27072
E. coli JMI 3328 = conditions: for MIC: E. coli JMI 3328
Escherichia coli C175-94 = test: Murine urinary tract infection efficacy; assay type: in vivo; conditions: for dose-response in the CFUs in the bladder and in the kidneys: 0.25-2 mg/kg/dose s.c. twice a day
Experimental: The study used 64 outbred, OF-1 female mice (Charles River, France) weighing 28-32 grams and Escherichia coli C175-94 (serotype O8:K48:H4), a clinical isolate elaborating type 1 fimbriae. The peptides were NAB815 (Lot 1054308) and polymyxin B (Sigma-Aldrich, batch BCBF8382V). The study was performed by Statens Serum Institut, Copenhagen, Denmark.
Three days before the start of the study and during the study, the mice had free access to 5% glucose in drinking water.
On day 0, the urine was removed from the bladder by gently pressing the abdomen. Thereafter, the mouse was anaesthetized with approximately 0.15 ml of Zoletil mix s.c. A syringe with polyethylene catheter (Becton Dickison) containing the bacterial suspension was inserted via the urethra into the bladder and 50 μl of the bacterial inoculum was slowly injected into the bladder. Thereafter, the mouse was left in the cage. Mice were kept in a warming cabinet and were under surveillance until fully awake.
After measuring the colony forming units (CFUs), the inoculum was determined to contain 9.38 log 10 CFU/ml, corresponding to 8.08 log 10 CFU/mouse.
On day 1 and day 2 postinfection, the mice were treated subcutaneously with solutions (0.2 ml) containing NAB815, polymyxin B or vehicle (0.9% NaCl) twice a day. The treatment groups (six mice in each) were the following: vehicle control; NAB815, 0.25 mg/kg/dose; NAB815, 0.5 mg/kg/dose; NAB815, 1 mg/kg/dose; NAB815, 2 mg/kg/dose; polymyxin B, 0.25 mg/kg/dose; polymyxin B, 0.5 mg/kg/dose; polymyxin B, 1 mg/kg/dose; and polymyxin B, 2 mg/kg/dose. In addition, one group served as a pretreatment control to help to assess as how the infection has proceeded before the start of the treatment on day 1 postinfection.
On days 1, 2 and 3 postinfection urine was sampled for colony counts. On day 1 postinfection (pretreatment control group) and on day 3 postinfection (all the other groups) after the urine sample was taken, mice were sacrificed by cervical dislocation and bladder and kidneys were removed aseptically. The bladder and kidneys were stored at −80° C. and later homogenized in 0.5 and 1 ml saline, respectively.
CFUs in urine were determined immediately within 2-3 hours after sampling. Frozen organs were thawed and homogenized with steel beads on a tissue lyser. All samples, urine, kidney and bladder, were 10 fold diluted in saline and 20-μl spots were applied on blood agar plates in duplicates. In addition, undiluted samples of urine (2-100 μl depending on the amount of urine) were spread on a separate agar plate to determine the lowest possible detection level of the colony counts. All agar plates were incubated 18-22 h at 35° C. in ambient air.

A. baumannii ATCC 19606 = conditions: A. baumannii ATCC 19606
P. aeruginosa JMI 7445 = conditions: P. aeruginosa JMI 7445
E. coli ATCC 25922 = conditions: E. coli ATCC 25922
[1] = Toxicokinetics (plasma and urine) in cynomolgus monkeys; conditions: for AUC: plasma
Experimental: For seven days, the animals were dosed by intravenous (IV) infusion three times daily (TID) at a dose volume of 10 mL/kg for 1 hour (±10 minutes), 8±0.5 hours apart. The day of initial dose administration was designated study Day 1, with subsequent days consecutively numbered. Days prior to the initial dose administration were consecutively numbered with the final day of acclimation referenced as Day −1.
The following parameters were evaluated at designed intervals: clinical observations, body weights, clinical pathology (hematology, coagulation, serum chemistry, urinalysis including urine sediments and urine chemistry), toxicokinetics (plasma and urine) and anatomic pathology (kidney). In cases of animals sacrificed on an unscheduled basis, samples were taken on the day of the sacrifice.
Plasma and urine concentrations for toxicokinetic (TK) studies were determined by using liquid chromatograph interfaced with a mass spectrometer after precipitation of proteins. A sample (100 μL) was mixed with internal standard solution in water:formic acid (99:1 v/v; […]). Then, 600 μL of 100:1 acetonitrile:formic acid was added. The plates were centrifuged at 3200 rpm for 5 minutes. Using a Tomtec Quadra96, a 450 μL aliquot was transferred to a new 96-well plate and dried under nitrogen at 40° C. Then, 200 μL of water:methanol:formic acid (85:15:1 1 v/v) was added and the plate sealed for LC-MS/MS injection. LC-MS system consisted of Waters Acquity liquid chromatograph interfaced with a Thermo Scientific TSQ Quantitative triple quadrupole MS with ionization in the positive ion mode. Each sample (20 μL) was injected onto a Waters Acquity BEH Shield RP18 column (2.1×50 mm; 1.7 μm) equilibrated at 50° C. Mobile Phase A was 85:15:1 v/v water:methanol:formic acid. Mobile Phase B was 50:50:1 v/v acetonitrile:methanol:formic acid.
Peak area ratios from the calibration standard responses were regressed using a (1/concentration^2) linear fit for polymyxin B using colistin as the internal standard. For NAB739 and NAB815, peak areas from the calibration standard responses were regressed using a (1/concentration^2) quadratic fit (without the use of an internal standard).
The regression models were chosen based upon the behavior of the analytes across the concentration range used during development.
Toxicokinetic analysis was performed by using WinNonlin Phoenix version 6.3 software (Pharsight, Cary, N.C.). For plasma TK, noncompartmental IV infusion model was used.
In the cynomolgus monkey studies described in Example 3, where the peptides were administered as a 1-hour intravenous infusion three times daily, plasma and urine levels of the peptides were determined.

[2] = in combination with rifampin 0.25 μg/mL
[3] = peptide at 1 μg/mL, E. coli JM13328
[4] = of all 24 mice treated at 0.25-2 mg/kg/dose
[5] = in combination with rifampin 0.25 μg/mL, A. baumannii CMI 417
[6] = alone, K. pneumoniae JMI 27068 (polymyxin-nonsusceptible)
[7] = in combination with rifampin 0.25 μg/mL, K. pneumoniae JMI 27068

Molecule | MIC (K. pneumoniae ATCC 43816; [2]) [µg/mL] | MIC (K. pneumoniae JMI 27072; alone) [µg/mL] | MIC (E. coli JMI 3328; alone) [µg/mL] | MIC (E. coli JMI 3328; [2]) [µg/mL] | dose-response in the CFUs in the bladder and in the kidneys (Escherichia coli C175-94) | number of mice with bacterial levels below the detection limit in the urine (Escherichia coli C175-94; [4]) [mice] | MIC (A. baumannii ATCC 19606; alone) [µg/mL] | MIC (A. baumannii ATCC 19606; [2]) [µg/mL] | MIC (A. baumannii CMI 417; [5]) [µg/mL] | MIC (P. aeruginosa JMI 7445; alone) [µg/mL] | MIC (E. coli ATCC 25922; alone) [µg/mL] | MIC (E. coli ATCC 25922; [2]) [µg/mL] | MIC (K. pneumoniae JMI 27068; [6]) [µg/mL] | MIC (K. pneumoniae JMI 27068; [7]) [µg/mL] | further results
CCCCCCCC(=O)N[C@@H](CCN)C(=O)N[C@H](C(=O)N[C@@H](C(=O)N[C@H]1CCNC(=O)[C@H]([C@@H](C)O)NC(=O)[C@H](CCN)NC(=O)[C@H](CC)NC(=O)[C@H](CC(C)C)NC(=O)[C@@H](Cc2ccccc2)NC(=O)[C@H](CCN)NC1=O)[C@H](C)O)[C@@H](C)O [NAB815, octanoyl-αDab-Thr-DThr-[cyclo-α,γDab-αDab-DPhe-Leu-Abu-αDab-Thr]] (Octanoyl-[Dab]T[dT][Dab][Dab][dF]L[Abu][Dab]T; lactam 4-C) | 1 | 2 to 4 | 4 (≈ 3.4 µM) | 1 | showed a tendency of a dose-response | 8 | 4 (≈ 3.4 µM) | 0.5 to 2 | 2 | 8 (≈ 6.81 µM) | 2 (≈ 1.7 µM) | 1 | 128 (≈ 109 µM) | 4 | MIC of rifampin in the presence of the peptide (K. pneumoniae ATCC 43816; peptide at 1 μg/mL): 0.25 µg/mL; factor of decrease of the MIC of rifampin (K. pneumoniae ATCC 43816; peptide at 1 μg/mL): 64; MIC of rifampin in the presence of the peptide (E. coli JMI 3328; [3]): 0.25 µg/mL; factor of decrease of the MIC of rifampin (E. coli JMI 3328; [3]): 32; CFU levels in urine, day 3 vs pretreatment control day 1 (Escherichia coli C175-94; 0.25 mg/kg/dose s.c. twice a day, OF-1 female mice): no significant differences; CFU levels in urine, day 3 vs pretreatment control day 1 (Escherichia coli C175-94; 0.5 mg/kg/dose s.c. twice a day, OF-1 female mice): no significant differences; CFU levels in urine, day 3 vs pretreatment control day 1 (Escherichia coli C175-94; 1 mg/kg/dose s.c. twice a day, OF-1 female mice, ** p<0.01): significant reduction of CFU levels in urine; CFU levels in urine, day 3 vs pretreatment control day 1 (Escherichia coli C175-94; 2 mg/kg/dose s.c. twice a day, OF-1 female mice, * p<0.05): significant reduction of CFU levels in urine; number of mice with bacterial levels below the detection limit in the kidneys (Escherichia coli C175-94; [4]): 20 mice; MIC of rifampin in the presence of the peptide (E. coli ATCC 25922; peptide at 1 μg/mL): 0.25 µg/mL; factor of decrease of the MIC of rifampin (E. coli ATCC 25922; peptide at 1 μg/mL): 32; AUC ([1]; cynomolgus monkey, in vivo, 36 mg/kg/day, AUCs, dosed at 36 mg/kg/d, day 1): 153 µg·h/mL; AUC ([1]; cynomolgus monkey, in vivo, iv, 8 mg/kg, AUCs 0-8 h, after infusion of 8 mg/kg, day 1): 102 µg·h/mL; AUC ([1]; cynomolgus monkey, in vivo, iv, 8 mg/kg, AUCs 0-8 h, after infusion of 8 mg/kg, day 7): 110 µg·h/mL; AUC ([1]; cynomolgus monkey, in vivo, iv, 36 mg/kg/day, AUCs, dosed at 36 mg/kg/d, day 7): 205 µg·h/mL; dose excreted ([1]; female, cynomolgus monkey, in vivo, iv, 36 mg/kg/d, urinary recoveries (0-8 h urine collection), 36 mg/kg/d, day 7, each animal): 33.9%
Polymyxin B | 0.5 to 1 | 2 | 2 | 0.5 to 1 | did not show any dose-response tendency | 1 | 2 | 0.5 | 1 | 2 | 2 | 0.5 to 1 | 64 | 1 | MIC (K. pneumoniae ATCC 43816; alone): 2 µg/mL; MIC (K. pneumoniae JMI 27072; [2]): 1 µg/mL; CFU levels in urine, day 3 vs pretreatment control day 1 (Escherichia coli C175-94; any dose group (0.25, 0.5, 1, 2 mg/kg/dose) s.c. twice a day): no significant differences; MIC (A. baumannii CMI 417; alone, A. baumannii CMI 417 (polymyxin-nonsusceptible)): 32 µg/mL; MIC (P. aeruginosa JMI 7445; [2]): 1 µg/mL; 0-8 h recovery in urine (of the dose) ([1]; after infusion of 8 mg/kg, given for each animal, 8 mg/kg): 1% and 2% (2×)
